The values that follow come from patent publication US4670421A, “Antiatherosclerotic silanes” (American Cyanamid Company, priority 1982, dated 1987).

For orientation: inhibition means the share of the control response that was lost under treatment. Low readings indicate little suppression, high ones strong suppression.

Assay [1] in a line: Serum hypolipidemic activity in vivo: lowering of serum cholesterol and triglycerides in rats. On the set-up: species or system male rats COBS, CD, SD strain. The conditions noted are these: oral, 0.1% by weight in diet, 5 days, vs control animals. The method, then: (§1) The compounds of the present invention were assayed for two types of biological activity related to their potential use as antiatherosclerotic agents. Compounds were tested in vitro for their ability to inhibit the enzymes fatty acyl CoA:cholesterol acyl transferase (ACAT) and in vivo for serum hypolipidemic activity as measured by their ability to inhibit lipid absorption in rats. The compounds were tested for their ability to inhibit ACAT according to the following procedure:
The compounds were also tested for their ability to lower lipid levels in mammals. The compounds were administered orally admixed with diet (0.1% by weight) to groups of four male rats COBS, CD, SD strain from Charles River Breeding Laboratories, Inc, Wilmington, Mass. A control group of eight rats was maintained on the diet alone; test groups were maintained on the diet plus 0.1% of test compounds by weight. After 5 days treatment, serum cholesterol and triglyceride concentrations were determined by direct enzymatic procedures using a Centrifichem® System 400 autoanalyzer (Union Carbide Co.). Cholesterol concentrations were determined by the combined cholesterol esterase-cholesterol oxidase procedure of Roelschlau et. al., Zeit. Klin. Chem. Lkin. Biochem., 12, 226 (1974). Triglycerides were determined by the combined method of lipase catalyzed hydrolysis of triglycerides to glycerol and free fatty acids [Bucolo, G. and David, H., Clin. Chem. 19, 476 (1973)] and Wahlefeld, A. W., in "Methods of Enzymatic Analysis", Vol. 4, Bergmeyer, H. U., Editor, Academic Press, New York, N.Y. (1974), pp. 1831-1835 and the enzymatic oxidation of the glycerol which leads to the production of colored formazan [Stavropoulos, W. S. and Crouch, R. D., Clin. Chem., 20, No. 7, 857 (1974)]. […] Compounds which produce statistically significant lowering of either sterol or triglycerides are considered to be active.

Assay [2] has as its target T1, fatty acyl CoA:cholesterol acyl transferase (ACAT) (Rattus norvegicus, UniProt O70536).
T1 construct: Rat adrenals were homogenized in 0.2M monobasic potassium phosphate buffer; from tissue; host or cells: rat adrenals, 1000 x g supernatant of the homogenate containing the microsomal fraction
T1 sequence (O70536 1-545): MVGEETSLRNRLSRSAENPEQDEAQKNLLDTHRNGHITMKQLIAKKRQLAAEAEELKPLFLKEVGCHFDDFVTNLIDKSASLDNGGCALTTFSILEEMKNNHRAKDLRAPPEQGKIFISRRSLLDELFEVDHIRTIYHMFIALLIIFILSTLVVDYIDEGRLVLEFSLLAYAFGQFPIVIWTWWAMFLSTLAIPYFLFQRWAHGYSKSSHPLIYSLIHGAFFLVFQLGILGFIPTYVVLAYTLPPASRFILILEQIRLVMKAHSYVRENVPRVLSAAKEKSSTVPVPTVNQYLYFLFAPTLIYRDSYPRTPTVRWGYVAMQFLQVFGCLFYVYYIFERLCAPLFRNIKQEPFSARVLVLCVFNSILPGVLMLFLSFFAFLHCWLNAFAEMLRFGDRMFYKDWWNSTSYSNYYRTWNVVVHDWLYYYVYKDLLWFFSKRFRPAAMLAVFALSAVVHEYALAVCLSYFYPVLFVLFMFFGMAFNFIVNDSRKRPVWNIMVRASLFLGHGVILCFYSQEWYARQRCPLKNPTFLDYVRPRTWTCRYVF
Kind of assay: Inhibition of fatty acyl CoA:cholesterol acyl transferase (ACAT) in vitro (rat adrenal supernatant, oleoyl CoA-14C). It is filed as biochemical. Particulars: final concentration 5.2 μg./ml., 37° C.; for inhibition at 5.2 µg/mL: pH 7.4, rat adrenal supernatant; for % Inhibition (ACAT): rat adrenal supernatant, pH 7.4. As for the experimental part: as §1
Rat adrenals were homogenized in 0.2M monobasic potassium phosphate buffer, pH 7.4, and centrifuged at 1000 times gravity for 15 minutes at 5° C. The supernatant, containing the microsomal fraction, served as the source of the cholesterol-esterifying enzyme, fatty acyl CoA:cholesterol acyl transferase (ACAT). A mixture comprising 50 parts of adrenal supernatant, 10 parts of albumin (BSA) (50 mg./ml.), 3 parts of test compound (final concentration 5.2 μg./ml.) and 500 parts of buffer was preincubated at 37° C. for 10 minutes. After treatment with 20 parts of oleoyl CoA(^14 C-0.4 μCi) the mixture was incubated at 37° C. for 10 minutes. A control mixture, omitting the test compound, was prepared and treated in the same manner. The lipids from the incubation mixture were extracted into an organic solvent and separated by thin-layer chromatography. The cholesteryl ester fraction was counted in a scintillation counter. This procedure is a modification of that described by Hashimoto, et al., Life Scie., 12 (Part II), 1-12 (1973).

The structures appear in SMILES notation.

On to `C[Si](C)(C)CCCNc1ccc(C(=O)O)cc1` [4-[3-(Trimethylsilyl)propylamino]benzoic acid], for which, in assay [1], the “% Lowering of Serum Sterol” value was 18% and the “% Lowering of Serum Triglycerides” value was 53%. In addition, the inhibition at 5.2 µg/mL in assay [2] was 12%.
On the same counts, the results for `C[Si](C)(C)CCCCCCCCCCCNc1ccc(C(=O)O)cc1` [4-[11-(Trimethylsilyl)undecylamino]benzoic acid] are 56%, 75% and 57%.
As to `C[Si](C)(C)CCCCCCCCCCCCCCNc1ccc(C(=O)O)cc1` [4-[14-(Trimethylsilyl)tetradecylamino]benzoic acid], in assay [1], the “% Lowering of Serum Sterol” value turned out to be 60% and the “% Lowering of Serum Triglycerides” value came out at 70%. Further, at 5.2 µg/mL the inhibition in assay [2] was 60%.
Regarding `CCOC(=O)c1ccc(NCCC[Si](C)(C)C)cc1` [Ethyl 4-[3-(trimethylsilyl)propylamino]benzoate], in assay [1], the “% Lowering of Serum Sterol” value is on record as 23% and the “% Lowering of Serum Triglycerides” value was 46%. Also, in assay [2], testing at 5.2 µg/mL gave an inhibition of 59%.
For `CCOC(=O)c1ccc(NCCCCCCCCCCC[Si](C)(C)C)cc1` [Ethyl 4-[11-(trimethylsilyl)undecylamino]benzoate], in assay [1], the “% Lowering of Serum Sterol” value is listed as 43% and the “% Lowering of Serum Triglycerides” value is given as 22%. Moreover, in assay [2], the inhibition at 5.2 µg/mL stood at 17%.
For `CCOC(=O)c1ccc(NCCCCCCCCCCCCCC[Si](C)(C)C)cc1` [Ethyl 4-[14-(trimethylsilyl)tetradecylamino]benzoate], in assay [1], the “% Lowering of Serum Sterol” value is on record as 47% and the “% Lowering of Serum Triglycerides” value is 38%. The molecule also gave an inhibition at 5.2 µg/mL in assay [2] of 50%.
With `C[Si](C)(C)CCCNc1ccc(C(=O)[O-])cc1.[Na+]` [Sodium 4-[3-(trimethylsilyl)propylamino]benzoate], in assay [1], the “% Lowering of Serum Sterol” value amounted to 36% and the “% Lowering of Serum Triglycerides” value is 23%. Moreover, the “% Inhibition (ACAT)” value in assay [2] was 23%.
Regarding `C[Si](C)(C)CCCCCCCCCCCNc1ccc(C(=O)[O-])cc1.[Na+]` [Sodium 4-[11-(trimethylsilyl)undecylamino]benzoate], in assay [1], the “% Lowering of Serum Sterol” value was found to be 52% and the “% Lowering of Serum Triglycerides” value came out at 54%. Moreover, in assay [2], the “% Inhibition (ACAT)” value came to 56%.
On the same counts, the results for `C[Si](C)(C)CCCCCCCCCCCCCCNc1ccc(C(=O)[O-])cc1.[Na+]` [Sodium 4-[14-(trimethylsilyl)tetradecylamino]benzoate] are 61%, 78% and 62%.
